Assay: in vitro
Settings: human, real gastrointestinal fluid or homogenate; for remaining at 1 h, 1 mg/ml: pH 7, % Peptide remaining at 1 hours (T = 1 h)
Protocol: A human colonic model based on a mixed faecal inoculum was used to mimic the luminal environment of the human large intestine. An anaerobic workstation (Electrotek 500TG™ workstation, Electrotek, West Yorkshire, UK) maintained at 37° C. and 70% relative air humidity was used to set up the model. The fecal material was transferred in the anaerobic workstation and diluted with freshly prepared basal medium to obtain 20% w/w slurry by homogenization. The basal media provides nutrients and growth factors to the microbiota allowing viability for up to 24 hours. The homogenized bacterial media was sieved through an open mesh fabric (SefarNitex™, pore size 350 μm) to remove any nonhomogeneous fibrous material. The pH was maintained at approximately 7 to mimic the colonic luminal pH of the human.
Desmopressin stock solution was prepared in HPLC water at 2 mg/ml without or with single L-amino acids, combinations of L-amino acids or di-peptides at 10 and/or 20 and/or 40 mM concentrations and added to […] human faecal slurry; […] Samples were withdrawn at appropriate time points and added to HPLC grade methanol in a ratio of 1:1. The samples were centrifuged at […] for 10 minutes at 4° C. and the supernatant was analysed by Reversed Phase-HPLC (RP-HPLC).
Sample analysis was performed using a high performance liquid chromatography (HPLC) system (Agilent Technologies, 1260 Infinity II Series™) equipped with a pump (model G7111A), autosampler (model G7129A) and a diode-array UV detector (model G7114A). A 150×4.6-mm, 5 μm, 100 Å (Phenomenex, UK) reversed phase chromatography column was used for sample separation using 0.1% TFA in water (A) and acetonitrile (B) as the mobile phase for elution, at a flow rate of 1 ml/min. The gradient was set up with 17% of B at 0-4 minutes, 30% of B at 20 minutes and 17% of B at 20.01-23 minutes. The analysis was operated at room temperature and UV detection wavelength was set at 220 nm. Each sample was run for 23 minutes to allow complete elution of the sample without overlapping matrix interferences.
Colon stability was assessed using the Human Colon model with the amount of intact desmopressin remaining at each time point assessed by RP-HPLC as described in the Methods section.
Colon stability was assessed using the Human Colon model with the amount of intact oxytocin, oxytocin with 1 D-amino acid and linear oxytocin remaining at each time point assessed by RP-HPLC as described in the Methods section.

| % Desmopressin remaining after 1 hours (T = 1 h) (1 h, 0.1 mg/ml, pH 7) | remaining at 1 h, 0.1 mg/ml (pH 7, % Desmopressin remaining after 1 hours (T = 1 h)) | remaining at 0.5 h, 1 mg/ml (pH 7, % Peptide remaining at 0.5 hours (T = 0.5 h)) | remaining at 1 h, 1 mg/ml | Structure (SMILES) |
| --- | --- | --- | --- | --- |
| 22.6 ± 2.7% | 28.8 ± 1.2% |  |  | NC(=O)CC[C@@H]1NC(=O)[C@H](Cc2ccccc2)NC(=O)[C@H](Cc2ccc(O)cc2)NC(=O)CCSSC[C@@H](C(=O)N2CCC[C@H]2C(=O)N[C@H](CCCN=C(N)N)C(=O)NCC(N)=O)NC(=O)[C@H](CC(N)=O)NC1=O [Desmopressin] |
|  |  | 0% | 0% | CC[C@H](C)[C@H](NC(=O)[C@H](Cc1ccc(O)cc1)NC(=O)[C@@H](N)CS)C(=O)N[C@@H](CCC(N)=O)C(=O)N[C@@H](CC(N)=O)C(=O)N[C@@H](CS)C(=O)N1CCC[C@H]1C(=O)N[C@H](CC(C)C)C(=O)NCC(N)=O [Linear Oxytocin with 1 D-amino acid] |
|  |  |  | 6.6 ± 0.25% | CC[C@H](C)[C@@H]1NC(=O)[C@H](Cc2ccc(O)cc2)NC(=O)[C@@H](N)CSSC[C@@H](C(=O)N2CCC[C@H]2C(=O)N[C@@H](CC(C)C)C(=O)NCC(N)=O)NC(=O)[C@H](CC(N)=O)NC(=O)[C@H](CCC(N)=O)NC1=O [Oxytocin] |

Source: patent US20230405081A1, “PHARMACEUTICAL COMPOSITION COMPRISING A PEPTIDE AS ACTIVE INGREDIENT” (INTRACT PHARMA LIMITED, priority 2020, published 2023)
